From PubChem BioAssay (NCI)
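48-hour exposure; five concentrations; linearly interpolated endpoints. The concentration for 50% growth inhibition is given as GI50. TGI denotes the concentration required for complete inhibition of growth.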

Assays:
Test in all cases: NCI tumour cell line growth inhibition, 48 h
MDA-MB-231 breast = system: MDA-MB-231 breast
OVCAR-5 ovarian = system: OVCAR-5 ovarian
NCI-H460 lung = system: NCI-H460 lung
K-562 leukemia = system: K-562 leukemia
RPMI-8226 leukemia = system: RPMI-8226 leukemia
SK-MEL-5 melanoma = system: SK-MEL-5 melanoma
HL-60(TB) leukemia = system: HL-60(TB) leukemia
DU-145 prostate = system: DU-145 prostate
MALME-3M melanoma = system: MALME-3M melanoma
UACC-62 melanoma = system: UACC-62 melanoma
HS 578T breast = system: HS 578T breast
HOP-92 NSCLC = system: HOP-92 NSCLC
SK-MEL-2 melanoma = system: SK-MEL-2 melanoma
CAKI-1 renal = system: CAKI-1 renal
OVCAR-4 ovarian = system: OVCAR-4 ovarian
SR leukemia = system: SR leukemia
NCI-H226 lung = system: NCI-H226 lung
EKVX NSCLC = system: EKVX NSCLC
A549 NSCLC = system: A549 NSCLC
PC-3 prostate = system: PC-3 prostate
NCI/ADR-RES ovarian = system: NCI/ADR-RES ovarian
M14 melanoma = system: M14 melanoma
NCI-H522 lung = system: NCI-H522 lung
UACC-257 melanoma = system: UACC-257 melanoma
UO-31 renal = system: UO-31 renal
SW-620 colon = system: SW-620 colon
SF-539 CNS = system: SF-539 CNS
OVCAR-3 ovarian = system: OVCAR-3 ovarian
BT-549 breast = system: BT-549 breast
SF-268 CNS = system: SF-268 CNS
A498 renal = system: A498 renal
SNB-19 CNS = system: SNB-19 CNS
T-47D breast = system: T-47D breast
IGROV1 ovarian = system: IGROV1 ovarian
U251 CNS = system: U251 CNS
NCI-H23 lung = system: NCI-H23 lung
HT29 colon = system: HT29 colon
COLO 205 colon = system: COLO 205 colon
LOX IMVI melanoma = system: LOX IMVI melanoma
HCT-116 colon = system: HCT-116 colon
CCRF-CEM leukemia = system: CCRF-CEM leukemia
SK-MEL-28 melanoma = system: SK-MEL-28 melanoma
MCF7 breast = system: MCF7 breast
MOLT-4 leukemia = system: MOLT-4 leukemia
HOP-62 NSCLC = system: HOP-62 NSCLC
TK-10 renal = system: TK-10 renal
SK-OV-3 ovarian = system: SK-OV-3 ovarian
HCT-15 colon = system: HCT-15 colon
SN12C renal = system: SN12C renal
KM12 colon = system: KM12 colon
SF-295 CNS = system: SF-295 CNS
MDA-MB-435 = system: MDA-MB-435
OVCAR-8 ovarian = system: OVCAR-8 ovarian
786-0 renal = system: 786-0 renal
ACHN renal = system: ACHN renal
HCC-2998 colon = system: HCC-2998 colon
SNB-75 CNS = system: SNB-75 CNS
RXF 393 renal = system: RXF 393 renal

With `O=C(CCCCCCCn1cc(-c2cccnc2)nn1)Nc1ccccc1-c1ccccc1` the GI50 (MDA-MB-231 breast) was 21.3 µM, the TGI (MDA-MB-231 breast) was > 100 µM and the GI50 (OVCAR-5 ovarian) was 0.422 µM. For the same compound, the TGI (OVCAR-5 ovarian) was > 100 µM, the GI50 (NCI-H460 lung) was 0.674 µM and the TGI (NCI-H460 lung) was > 100 µM. For the same compound, the GI50 (K-562 leukemia) was 0.0633 µM, the TGI (K-562 leukemia) was 44.7 µM and the GI50 (RPMI-8226 leukemia) was 0.401 µM. For the same compound, the TGI (RPMI-8226 leukemia) was > 77.9 µM, the GI50 (SK-MEL-5 melanoma) was 2.25 µM and the TGI (SK-MEL-5 melanoma) was 15.1 µM. It also gave a GI50 (HL-60(TB) leukemia) of 4.74 µM, a TGI (HL-60(TB) leukemia) of 29.1 µM and a GI50 (DU-145 prostate) of 0.569 µM. The TGI (DU-145 prostate) was > 100 µM, the GI50 (MALME-3M melanoma) was 5.71 µM and the TGI (MALME-3M melanoma) was 41.8 µM. The GI50 (UACC-62 melanoma) was 9.68 µM, the TGI (UACC-62 melanoma) was 47.3 µM and the GI50 (HS 578T breast) was 7.22 µM. The TGI (HS 578T breast) was > 100 µM, the GI50 (HOP-92 NSCLC) was 31.8 µM and the TGI (HOP-92 NSCLC) was > 100 µM. For the same compound, the GI50 (SK-MEL-2 melanoma) was 5.52 µM, the TGI (SK-MEL-2 melanoma) was 38.1 µM and the GI50 (CAKI-1 renal) was 1.29 µM. For the same compound, the TGI (CAKI-1 renal) was > 58.4 µM, the GI50 (OVCAR-4 ovarian) was 10.9 µM and the TGI (OVCAR-4 ovarian) was > 100 µM. The GI50 (SR leukemia) was 3.65 µM, the TGI (SR leukemia) was 64.8 µM and the GI50 (NCI-H226 lung) was 14.5 µM. The TGI (NCI-H226 lung) was 50.2 µM, the GI50 (EKVX NSCLC) was 10.5 µM and the TGI (EKVX NSCLC) was > 100 µM. The GI50 (A549 NSCLC) was 1.15 µM, the TGI (A549 NSCLC) was > 100 µM and the GI50 (PC-3 prostate) was 0.43 µM. The TGI (PC-3 prostate) was 36.7 µM, the GI50 (NCI/ADR-RES ovarian) was 0.0688 µM and the TGI (NCI/ADR-RES ovarian) was 27.4 µM. It also gave a GI50 (M14 melanoma) of 0.0914 µM, a TGI (M14 melanoma) of 16.5 µM and a GI50 (NCI-H522 lung) of 0.0508 µM. For the same compound, the GI50 (UACC-257 melanoma) was 7.75 µM, the TGI (UACC-257 melanoma) was 24.9 µM and the GI50 (UO-31 renal) was 5.24 µM. The TGI (UO-31 renal) was 47 µM, the GI50 (SW-620 colon) was 0.0526 µM and the TGI (SW-620 colon) was > 100 µM. For the same compound, the GI50 (SF-539 CNS) was 0.0522 µM, the TGI (SF-539 CNS) was > 78.8 µM and the GI50 (OVCAR-3 ovarian) was 5.72 µM. For the same compound, the TGI (OVCAR-3 ovarian) was > 100 µM, the GI50 (BT-549 breast) was 1.44 µM and the TGI (BT-549 breast) was 25.6 µM. The GI50 (SF-268 CNS) was 20.4 µM, the TGI (SF-268 CNS) was > 100 µM and the GI50 (A498 renal) was 13.7 µM. For the same compound, the TGI (A498 renal) was > 86.1 µM, the GI50 (SNB-19 CNS) was 1.74 µM and the TGI (SNB-19 CNS) was > 100 µM. The GI50 (T-47D breast) was 1.44 µM, the TGI (T-47D breast) was 28 µM and the GI50 (IGROV1 ovarian) was 0.272 µM. The TGI (IGROV1 ovarian) was > 100 µM, the GI50 (U251 CNS) was 0.22 µM and the TGI (U251 CNS) was > 100 µM. The GI50 (NCI-H23 lung) was 13.8 µM, the TGI (NCI-H23 lung) was > 100 µM and the GI50 (HT29 colon) was 0.506 µM. The TGI (HT29 colon) was > 100 µM, the GI50 (COLO 205 colon) was 1.92 µM and the TGI (COLO 205 colon) was 49.7 µM. The GI50 (LOX IMVI melanoma) was 4.05 µM, the TGI (LOX IMVI melanoma) was > 100 µM and the GI50 (HCT-116 colon) was 0.0361 µM. The TGI (HCT-116 colon) was > 32.9 µM, the GI50 (CCRF-CEM leukemia) was 0.435 µM and the TGI (CCRF-CEM leukemia) was > 100 µM. For the same compound, the GI50 (SK-MEL-28 melanoma) was 13.2 µM, the TGI (SK-MEL-28 melanoma) was > 95 µM and the GI50 (MCF7 breast) was 3.36 µM. The TGI (MCF7 breast) was 51.5 µM, the GI50 (MOLT-4 leukemia) was 2.31 µM and the TGI (MOLT-4 leukemia) was 23.4 µM. For the same compound, the GI50 (HOP-62 NSCLC) was 26.2 µM, the TGI (HOP-62 NSCLC) was > 100 µM and the GI50 (TK-10 renal) was 17.4 µM. For the same compound, the TGI (TK-10 renal) was > 100 µM, the GI50 (SK-OV-3 ovarian) was 12.5 µM and the TGI (SK-OV-3 ovarian) was > 100 µM. The GI50 (HCT-15 colon) was 0.231 µM, the TGI (HCT-15 colon) was > 100 µM and the GI50 (SN12C renal) was 0.0475 µM. For the same compound, the TGI (SN12C renal) was > 100 µM, the GI50 (KM12 colon) was 0.607 µM and the TGI (KM12 colon) was 24.2 µM. For the same compound, the GI50 (SF-295 CNS) was 0.403 µM, the GI50 (MDA-MB-435) was 0.305 µM and the TGI (MDA-MB-435) was 13.2 µM. For the same compound, the GI50 (OVCAR-8 ovarian) was 0.0437 µM, the TGI (OVCAR-8 ovarian) was 27.9 µM and the GI50 (786-0 renal) was 4.13 µM. The TGI (786-0 renal) was > 100 µM, the GI50 (ACHN renal) was 9.39 µM and the TGI (ACHN renal) was > 100 µM. For the same compound, the GI50 (HCC-2998 colon) was 0.385 µM, the TGI (HCC-2998 colon) was > 61.8 µM and the GI50 (SNB-75 CNS) was 29.8 µM. For the same compound, the TGI (SNB-75 CNS) was > 100 µM, the GI50 (RXF 393 renal) was > 43.6 µM and the TGI (RXF 393 renal) was > 100 µM.
